# Test results from ChEMBL document CHEMBL1201862, “PubChem BioAssay data set” (2004).
# Calls of active or inactive are those of the source.
# Experiments:
# [1] = target: Voltage-gated inwardly rectifying potassium channel KCNH2 (Homo sapiens, UniProt Q12809); settings: Potency;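 further: confirmatory quantitative high-throughput screen measuring inhibition of hERG channel activity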
# [2] = target: FAD-linked sulfhydryl oxidase ALR (Homo sapiens, UniProt P55789); experiment: inhibitors of human ALR sulfhydryl oxidase, dose response, biochemical, H2O2 detection, luminescence, cherry-pick (AID 493248)
# Sequence of FAD-linked sulfhydryl oxidase ALR (P55789 whole entry): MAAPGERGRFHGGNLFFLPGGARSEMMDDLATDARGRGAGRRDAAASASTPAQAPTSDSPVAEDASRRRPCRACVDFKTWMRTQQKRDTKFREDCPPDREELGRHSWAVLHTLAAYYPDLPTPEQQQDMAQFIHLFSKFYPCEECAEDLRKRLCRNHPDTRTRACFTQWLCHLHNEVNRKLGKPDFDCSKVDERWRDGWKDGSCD
# [3] = target: T1, Apoptotic protease-activating factor 1 (Homo sapiens, UniProt O14727); experiment: activation of Apaf-1 mediated apoptosis – fluorescent, uHTS hits, dose response (AID 588554); type: functional
# T1 sequence (O14727 whole entry): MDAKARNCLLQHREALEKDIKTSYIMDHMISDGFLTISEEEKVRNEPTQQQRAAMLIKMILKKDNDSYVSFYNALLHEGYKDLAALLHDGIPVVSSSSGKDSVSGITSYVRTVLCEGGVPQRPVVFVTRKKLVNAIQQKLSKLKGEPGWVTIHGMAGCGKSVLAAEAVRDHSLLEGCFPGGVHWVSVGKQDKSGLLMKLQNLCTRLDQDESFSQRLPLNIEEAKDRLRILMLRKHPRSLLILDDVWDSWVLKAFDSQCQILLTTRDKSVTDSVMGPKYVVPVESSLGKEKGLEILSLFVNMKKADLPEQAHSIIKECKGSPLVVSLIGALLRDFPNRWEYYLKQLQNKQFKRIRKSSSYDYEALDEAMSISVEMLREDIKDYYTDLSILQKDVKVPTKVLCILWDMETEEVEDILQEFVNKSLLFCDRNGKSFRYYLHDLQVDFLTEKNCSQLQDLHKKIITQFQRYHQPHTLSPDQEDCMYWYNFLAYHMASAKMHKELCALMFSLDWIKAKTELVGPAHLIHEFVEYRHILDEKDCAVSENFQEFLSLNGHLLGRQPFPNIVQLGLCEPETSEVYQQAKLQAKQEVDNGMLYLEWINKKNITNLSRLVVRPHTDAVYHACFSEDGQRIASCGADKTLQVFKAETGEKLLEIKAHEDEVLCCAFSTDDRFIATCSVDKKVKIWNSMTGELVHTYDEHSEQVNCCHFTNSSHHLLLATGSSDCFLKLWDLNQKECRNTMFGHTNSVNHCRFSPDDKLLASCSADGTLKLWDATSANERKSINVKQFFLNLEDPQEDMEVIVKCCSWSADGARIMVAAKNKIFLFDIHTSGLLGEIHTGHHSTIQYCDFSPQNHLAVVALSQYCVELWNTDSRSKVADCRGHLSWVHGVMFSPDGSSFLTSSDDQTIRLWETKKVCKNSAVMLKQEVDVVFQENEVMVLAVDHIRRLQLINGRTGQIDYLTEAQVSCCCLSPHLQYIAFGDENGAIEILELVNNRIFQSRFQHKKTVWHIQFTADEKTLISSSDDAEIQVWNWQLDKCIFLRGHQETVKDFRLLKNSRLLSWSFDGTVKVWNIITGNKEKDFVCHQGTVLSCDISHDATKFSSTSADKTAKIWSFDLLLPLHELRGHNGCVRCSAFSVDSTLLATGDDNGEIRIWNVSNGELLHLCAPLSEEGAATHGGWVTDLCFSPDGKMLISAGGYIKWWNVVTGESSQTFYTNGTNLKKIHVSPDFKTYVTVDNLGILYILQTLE
# [4] = target: Eukaryotic translation initiation factor 4E (Mus musculus, UniProt P63073); experiment: eIF4E–eIF4G protein interaction inhibitors, dose response, biochemical, TR-FRET (AID 855); type: functional;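 further: potency for disrupting eIF4E binding to eIF4GI seen as loss of FRET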
# Sequence of Eukaryotic translation initiation factor 4E (P63073 whole entry): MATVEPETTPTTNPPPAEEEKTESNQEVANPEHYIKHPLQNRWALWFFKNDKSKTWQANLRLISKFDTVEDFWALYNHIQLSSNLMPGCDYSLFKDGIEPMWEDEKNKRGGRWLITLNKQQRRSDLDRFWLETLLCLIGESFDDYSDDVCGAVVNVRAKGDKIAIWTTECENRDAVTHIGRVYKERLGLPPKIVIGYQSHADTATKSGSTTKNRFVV
# Beta-galactosidase = Beta-galactosidase (Escherichia coli, UniProt Q8VNN2); experiment: beta-galactosidase enzyme inhibitors and activators, dose response, artefact control for CCR6 antagonist project, biochemical, E. coli enzyme, set 3 (AID 504712); type: functional
# Sequence of Beta-galactosidase (Q8VNN2 whole entry): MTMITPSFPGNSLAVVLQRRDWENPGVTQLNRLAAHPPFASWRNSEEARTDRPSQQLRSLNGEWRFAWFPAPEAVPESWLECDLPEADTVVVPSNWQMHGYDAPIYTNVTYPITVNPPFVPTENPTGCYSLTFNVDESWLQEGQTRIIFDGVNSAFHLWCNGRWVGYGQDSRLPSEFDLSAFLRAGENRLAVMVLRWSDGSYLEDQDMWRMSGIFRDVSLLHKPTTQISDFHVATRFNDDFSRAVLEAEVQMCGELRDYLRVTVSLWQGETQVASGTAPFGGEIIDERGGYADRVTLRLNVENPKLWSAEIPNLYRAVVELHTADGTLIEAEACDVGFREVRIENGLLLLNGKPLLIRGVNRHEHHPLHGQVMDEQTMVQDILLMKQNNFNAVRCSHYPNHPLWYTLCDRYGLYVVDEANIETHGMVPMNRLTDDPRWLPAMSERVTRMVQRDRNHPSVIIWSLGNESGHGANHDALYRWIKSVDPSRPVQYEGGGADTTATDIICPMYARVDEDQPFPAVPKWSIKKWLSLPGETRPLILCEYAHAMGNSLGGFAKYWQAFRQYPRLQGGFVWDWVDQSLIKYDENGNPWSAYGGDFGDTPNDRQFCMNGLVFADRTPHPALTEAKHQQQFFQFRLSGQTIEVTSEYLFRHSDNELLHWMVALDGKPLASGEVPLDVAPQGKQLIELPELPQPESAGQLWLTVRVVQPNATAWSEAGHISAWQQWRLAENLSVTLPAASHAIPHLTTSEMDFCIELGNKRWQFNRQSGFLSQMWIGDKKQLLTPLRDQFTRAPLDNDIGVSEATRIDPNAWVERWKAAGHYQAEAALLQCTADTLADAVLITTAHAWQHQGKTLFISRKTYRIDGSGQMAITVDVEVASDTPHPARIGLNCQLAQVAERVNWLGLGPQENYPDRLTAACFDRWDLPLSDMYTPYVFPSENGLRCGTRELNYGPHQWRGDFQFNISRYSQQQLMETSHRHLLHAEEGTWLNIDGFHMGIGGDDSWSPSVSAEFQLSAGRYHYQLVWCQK
# [5] = HepG2 cell cytotoxicity, dose response, cytotoxicity control for Shn3 inhibitor project, CellTiter-Glo, cherry-picked (AID 624134); type: functional, cell-based
# A-375 [6] = experiment: MITF: Counter assay: A375 proliferation Measured in Cell-Based System Using Plate Reader - 2084-03_Inhibitor_Dose_DryPowder_Activity. [Related pubchem assays (depositor defined):AID488944]; type: functional; settings: Homo sapiens
# [7] = target: T2, Microphthalmia-associated transcription factor (Homo sapiens, UniProt O75030); experiment: TRPM1 promoter luciferase signal decrease, dose response, MITF inhibitor project, cell-based, SK-MEL-5, cherry-picked, set 3 (AID 493073); type: functional
# T2 sequence (O75030 whole entry): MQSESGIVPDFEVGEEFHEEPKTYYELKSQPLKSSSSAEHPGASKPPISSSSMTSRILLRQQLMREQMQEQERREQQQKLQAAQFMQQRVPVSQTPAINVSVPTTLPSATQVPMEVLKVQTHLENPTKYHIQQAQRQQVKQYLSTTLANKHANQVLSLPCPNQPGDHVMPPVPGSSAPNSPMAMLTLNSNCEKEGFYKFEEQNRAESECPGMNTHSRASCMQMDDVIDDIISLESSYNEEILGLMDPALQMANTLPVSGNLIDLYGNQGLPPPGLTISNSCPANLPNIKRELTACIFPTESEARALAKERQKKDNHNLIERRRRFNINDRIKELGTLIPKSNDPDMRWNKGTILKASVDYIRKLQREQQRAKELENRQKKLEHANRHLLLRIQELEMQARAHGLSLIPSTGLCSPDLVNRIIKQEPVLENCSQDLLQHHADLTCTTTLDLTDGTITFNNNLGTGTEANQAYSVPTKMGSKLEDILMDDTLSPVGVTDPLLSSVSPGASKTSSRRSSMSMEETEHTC
# cells = type: functional
# [8] = control 3'UTR Renilla luciferase suppression, dose response, counter-screen for Shn3 inhibitor project, cell-based, Clone20-Shn3RL, cherry-picked (AID 624133); type: functional
# [9] = Luminescence Cell-Based Dose Retest to Confirm Inhibitors of Cancer Stem Cells. [Related pubchem assays (depositor defined):AID2717, AID2721]; type: functional; settings: Homo sapiens
# [10] = THP-1 cell cytotoxicity, dose response, cytotoxicity control for non-replicating M. tuberculosis project (AID 489025); type: functional
# A-375 [11] = experiment: A375 melanoma cell viability reduction, dose response, counter-screen for MITF modulator project, cherry-pick samples, set 2 (AID 540335); type: functional, cell-based; settings: Homo sapiens
# [12] = Shn3 3'UTR reporter inhibitors, dose response, cell-based, Clone20 osteoblasts, firefly luciferase, cherry-picked (AID 624132); type: functional;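 further: firefly luciferase luminescence from reporter carrying the Shn3 3'UTR in osteoblasts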
# Sequence of Voltage-gated inwardly rectifying potassium channel KCNH2 (Q12809 whole entry): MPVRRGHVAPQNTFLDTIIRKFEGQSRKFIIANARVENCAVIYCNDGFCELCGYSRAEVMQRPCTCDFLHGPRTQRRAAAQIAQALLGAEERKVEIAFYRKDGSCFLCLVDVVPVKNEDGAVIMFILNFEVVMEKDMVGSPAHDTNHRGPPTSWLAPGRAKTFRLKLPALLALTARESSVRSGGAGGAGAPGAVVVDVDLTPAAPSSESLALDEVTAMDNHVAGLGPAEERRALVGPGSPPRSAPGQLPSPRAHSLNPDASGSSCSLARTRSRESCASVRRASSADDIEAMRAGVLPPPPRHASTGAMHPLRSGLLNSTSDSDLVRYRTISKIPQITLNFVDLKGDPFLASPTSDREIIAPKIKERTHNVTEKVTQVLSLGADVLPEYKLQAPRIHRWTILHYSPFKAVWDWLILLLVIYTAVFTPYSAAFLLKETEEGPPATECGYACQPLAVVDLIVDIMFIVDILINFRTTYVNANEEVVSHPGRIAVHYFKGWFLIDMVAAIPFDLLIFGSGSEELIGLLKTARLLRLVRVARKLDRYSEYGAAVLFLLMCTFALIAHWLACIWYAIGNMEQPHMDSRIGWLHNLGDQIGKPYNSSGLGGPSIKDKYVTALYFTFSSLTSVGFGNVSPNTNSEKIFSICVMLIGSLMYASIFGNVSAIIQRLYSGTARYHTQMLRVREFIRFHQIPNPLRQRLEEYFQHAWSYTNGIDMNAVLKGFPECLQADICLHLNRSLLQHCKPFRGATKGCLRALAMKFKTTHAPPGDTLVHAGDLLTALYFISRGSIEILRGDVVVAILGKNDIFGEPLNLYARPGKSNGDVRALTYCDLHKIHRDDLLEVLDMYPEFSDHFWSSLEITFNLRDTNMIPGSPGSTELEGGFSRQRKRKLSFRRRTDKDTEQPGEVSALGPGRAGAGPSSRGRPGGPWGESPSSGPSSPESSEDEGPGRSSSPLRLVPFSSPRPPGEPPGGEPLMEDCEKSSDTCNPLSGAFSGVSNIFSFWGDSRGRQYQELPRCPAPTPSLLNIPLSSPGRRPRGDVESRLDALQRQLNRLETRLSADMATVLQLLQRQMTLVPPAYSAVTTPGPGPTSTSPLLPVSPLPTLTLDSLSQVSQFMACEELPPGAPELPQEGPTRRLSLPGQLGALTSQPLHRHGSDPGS
compound,measurement,setting,value
COc1ccccc1N1CCN(CCN(C(=O)C2CCCCC2)c2ccccn2)CC1,AC50,[1],31.6 µM (inconclusive)
N#CCCn1cc(C(CC(=O)c2ccc(Br)cc2)C(=O)O)c2ccccc21 (centres undefined),AC50,[2],> 100 µM (inactive)
same,EC50,[3],22.9 µM (active)
Cc1ccc(Oc2c(C(N)=O)cc([N+](=O)[O-])cc2[N+](=O)[O-])cc1,IC50,[4],> 64 µM (inactive)
same,IC50,Beta-galactosidase,> 66.6 µM (inactive)
same,AC50,[5],25.2 µM (active)
same,AC50,A-375 [6],> 11 µM (active)
same,AC50,[7],3.68 µM (active)
same,IC50,cells,1.31 µM (active)
same,AC50,[8],4.73 µM (active)
same,AC50,[9],2.99 µM (active)
same,CC50,[10],22.4 µM (active)
same,AC50,A-375 [11],> 11 µM (active)
same,AC50,[12],11.9 µM (active)
